Laboratory results published in PMC12139501, “Acetyl-11-keto-β-boswellic acid alleviates hepatic metabolic dysfunction by inhibiting MGLL activity” (Journal of Lipid Research, 2025).

Key:
[1] = biological target: T1, monoacylglycerol lipase (MGLL) (Mus musculus, UniProt O35678); assay: ITC with purified MGLL; supported by pull-down and LC-MS activity assay in hepatocyte lysate; format: binding; design: N-terminal 6×His fusion protein of the mouse MGLL domain
T1 sequence (O35678 1-303): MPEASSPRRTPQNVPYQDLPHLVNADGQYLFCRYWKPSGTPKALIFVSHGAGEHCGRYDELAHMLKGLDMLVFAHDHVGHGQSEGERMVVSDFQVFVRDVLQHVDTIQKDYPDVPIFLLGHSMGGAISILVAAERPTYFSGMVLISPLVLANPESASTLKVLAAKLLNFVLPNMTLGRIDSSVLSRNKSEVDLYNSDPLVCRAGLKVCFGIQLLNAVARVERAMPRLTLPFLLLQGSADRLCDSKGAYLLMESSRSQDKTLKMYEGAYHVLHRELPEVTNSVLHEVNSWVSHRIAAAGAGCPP

[2] = biological target: T1, monoacylglycerol lipase (MGLL); assay: LC-MS 2-oleoylglycerol hydrolysis assay in hepatocyte lysate, […]; format: cell-based; design: endogenous or adenovirus-overexpressed MGLL in primary hepatocyte homogenate

Kd [1]	Structure (SMILES)	LC-MS 2-oleoylglycerol hydrolysis assay in hepatocyte lysate, 50 μM [2]
40.6 µM	CC(=O)O[C@@H]1CC[C@@]2(C)[C@@H](CC[C@]3(C)[C@@H]2C(=O)C=C2[C@@H]4[C@@H](C)[C@H](C)CC[C@]4(C)CC[C@]23C)[C@@]1(C)C(=O)O [AKBA]	–
–	COC(=O)[C@]1(C)CC[C@]2(C)CC[C@]3(C)C4=CC=C5C(=CC(=O)C(O)=C5C)[C@]4(C)CC[C@@]3(C)[C@@H]2C1 [pristimerin]	both AKBA and pristimerin significantly reduced MGLL activity in wild-type primary hepatocytes as well as in those overexpressing MGLL
